biological target: Full-length inactive AKT1 (Homo sapiens, UniProt P31749); assay: Inactive Akt Alpha Screen Assay; assay type: biochemical; details: values not marked with "*"; read-out: Akt1 IC50, (AlphaScreen)
Outline: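 AlphaScreen read-out (excitation 640 nm, emission 570 nm) after 90 min incubation at room temperature in the dark. Signal comes from crosstide phosphorylation by AKT1, which was activated by added PDK1, MAPKAPK2, ATP and lipid vesicles, captured via phospho-AKT substrate antibody and streptavidin beads.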

Sequence of Full-length inactive AKT1 (P31749 whole entry): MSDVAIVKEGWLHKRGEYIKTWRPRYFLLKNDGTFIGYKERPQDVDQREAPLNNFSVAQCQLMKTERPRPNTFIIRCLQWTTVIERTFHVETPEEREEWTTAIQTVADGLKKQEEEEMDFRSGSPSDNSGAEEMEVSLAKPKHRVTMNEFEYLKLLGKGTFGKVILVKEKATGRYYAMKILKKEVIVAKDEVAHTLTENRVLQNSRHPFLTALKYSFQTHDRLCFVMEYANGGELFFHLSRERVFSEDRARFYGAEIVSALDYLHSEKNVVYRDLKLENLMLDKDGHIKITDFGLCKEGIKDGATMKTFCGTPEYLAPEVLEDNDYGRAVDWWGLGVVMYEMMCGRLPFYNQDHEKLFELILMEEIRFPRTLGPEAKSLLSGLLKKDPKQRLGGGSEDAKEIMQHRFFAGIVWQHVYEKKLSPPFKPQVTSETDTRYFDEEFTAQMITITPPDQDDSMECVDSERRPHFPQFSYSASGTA

Point of comparison: `Cc1ccc2nc(-c3cccnc3N)n(-c3ccc(CC(=O)Nc4cccc(F)c4)cc3)c2n1` [Example 300, 2-(4-(2-(2-aminopyridin-3-yl)-5-methyl-3H-imidazo[4,5-b]pyridin-3-yl)phenyl)-N-(3-fluorophenyl)acetamide], IC50 170 nM. Against it:
- Cc1ccc2cc(NC(=O)Cc3ccc(-n4c(-c5cccnc5N)nc5cc(Br)cnc54)cc3)ccc2n1 [Example 298, 2-(4-(2-(2-aminopyridin-3-yl)-6-bromo-3H-imidazo[4,5-b]pyridin-3-yl)phenyl)-N-(2-methylquinolin-6-yl)acetamide] — 12-fold lower, 14 nM
- Nc1ncccc1-c1nc2cc(Br)cnc2n1-c1ccc(CC(=O)Nc2cccc(F)c2)cc1 [Example 299, 2-(4-(2-(2-aminopyridin-3-yl)-6-bromo-3H-imidazo[4,5-b]pyridin-3-yl)phenyl)-N-(3-fluorophenyl)acetamide] — within 1.5-fold, 130 nM
- Cc1ccc2nc(-c3cccnc3N)n(-c3ccc(CC(=O)Nc4ccccc4)cc3)c2n1 [Example 301, 2-(4-(2-(2-aminopyridin-3-yl)-5-methyl-3H-imidazo[4,5-b]pyridin-3-yl)phenyl)-N-phenylacetamide] — 2.6-fold lower, 66 nM
- Cc1ccc2cc(NC(=O)Cc3ccc(-n4c(-c5cccnc5N)nc5ccc(C)nc54)cc3)ccc2n1 [Example 302, 2-(4-(2-(2-aminopyridin-3-yl)-5-methyl-3H-imidazo[4,5-b]pyridin-3-yl)phenyl)-N-(2-methylquinolin-6-yl)acetamide] — 2.2-fold lower, 78 nM
- Nc1ncccc1-c1nc2cc(Br)cnc2n1-c1ccc(NC(=O)c2ccccc2)cc1 [Example 304, N-(4-(2-(2-aminopyridin-3-yl)-6-bromo-3H-imidazo[4,5-b]pyridin-3-yl)phenyl)benzamide] — 8.5-fold lower, 20 nM
- Nc1ncc(-c2ccc3nc(-c4cccnc4N)n(-c4ccc(CNC(=O)c5cccc(F)c5)cc4)c3n2)cn1 [Example 306, N-(4-(2-(2-aminopyridin-3-yl)-5-(2-aminopyrimidin-5-yl)-3H-imidazo[4,5-b]pyridin-3-yl)benzyl)-3-fluorobenzamide] — 14-fold lower, 12 nM
- Nc1ncccc1-c1nc2ccc(-c3cc[nH]c3)nc2n1-c1ccc(CNC(=O)c2cccc(F)c2)cc1 [Example 309, N-(4-(2-(2-aminopyridin-3-yl)-5-(1H-pyrrol-3-yl)-3H-imidazo[4,5-b]pyridin-3-yl)benzyl)-3-fluorobenzamide] — 7.4-fold lower, 23 nM
- Cc1noc(C)c1-c1ccc2nc(-c3cccnc3N)n(-c3ccc(CNC(=O)c4cccc(F)c4)cc3)c2n1 [Example 310, N-(4-(2-(2-aminopyridin-3-yl)-5-(3,5-dimethylisoxazol-4-yl)-3H-imidazo[4,5-b]pyridin-3-yl)benzyl)-3-fluorobenzamide] — 2.2-fold lower, 79 nM
- Nc1ncccc1-c1nc2ccc(-c3c[nH]c(=O)[nH]c3=O)nc2n1-c1ccc(CNC(=O)c2cccc(F)c2)cc1 [Example 311, N-(4-(2-(2-aminopyridin-3-yl)-5-(2,4-dioxo-1,2,3,4-tetrahydropyrimidin-5-yl)-3H-imidazo[4,5-b]pyridin-3-yl)benzyl)-3-fluorobenzamide] — 5.9-fold lower, 29 nM
- Nc1ncccc1-c1nc2ccc(-c3ccc(C(=O)O)o3)nc2n1-c1ccc(CNC(=O)c2cccc(F)c2)cc1 [Example 312, 5-(2-(2-aminopyridin-3-yl)-3-(4-((3-fluoro-benzamido)methyl)phenyl)-3H-imidazo[4,5-b]pyridin-5-yl)furan-2-carboxylic acid] — 5-fold lower, 34 nM
- CS(=O)(=O)Nc1ccccc1-c1ccc2nc(-c3cccnc3N)n(-c3ccc(CNC(=O)c4cccc(F)c4)cc3)c2n1 [Example 313, N-(4-(2-(2-aminopyridin-3-yl)-5-(2-(methylsulfonamido)phenyl)-3H-imidazo[4,5-b]pyridin-3-yl)benzyl)-3-fluorobenzamide] — within 1.5-fold, 120 nM
- NCc1ccc(-c2ccc3nc(-c4cccnc4N)n(-c4ccc(CNC(=O)c5cccc(F)c5)cc4)c3n2)cc1 [Example 314, N-(4-(5-(4-(aminomethyl)phenyl)-2-(2-aminopyridin-3-yl)-3H-imidazo[4,5-b]pyridin-3-yl)benzyl)-3-fluorobenzamide] — 6.8-fold lower, 25 nM
- C[S+]([O-])c1ccc(-c2ccc3nc(-c4cccnc4N)n(-c4ccc(CNC(=O)c5cccc(F)c5)cc4)c3n2)cc1 (centres unmarked) [Example 315, N-(4-(2-(2-aminopyridin-3-yl)-5-(4-(methylsulfinyl)phenyl)-3H-imidazo[4,5-b]pyridin-3-yl)benzyl)-3-fluorobenzamide] — 4.7-fold lower, 36 nM
- Nc1ncccc1-c1nc2ccc(-c3ccco3)nc2n1-c1ccc(CNC(=O)c2cccc(F)c2)cc1 [Example 316, N-(4-(2-(2-aminopyridin-3-yl)-5-(furan-2-yl)-3H-imidazo[4,5-b]pyridin-3-yl)benzyl)-3-fluorobenzamide] — 4.9-fold lower, 35 nM
- Nc1ncccc1-c1nc2ccc(-c3ccsc3)nc2n1-c1ccc(CNC(=O)c2cccc(F)c2)cc1 [Example 317, N-(4-(2-(2-aminopyridin-3-yl)-5-(thiophen-3-yl)-3H-imidazo[4,5-b]pyridin-3-yl)benzyl)-3-fluorobenzamide] — 7.1-fold lower, 24 nM
- Cc1ccc2cc(NC(=O)Cc3ccc(-n4c(-c5cccnc5N)nc5cc(-c6cccnc6)cnc54)cc3)ccc2n1 [Example 318, 2-(4-(2-(2-aminopyridin-3-yl)-6-(pyridin-3-yl)-3H-imidazo[4,5-b]pyridin-3-yl)phenyl)-N-(2-methylquinolin-6-yl)acetamide] — 8.9-fold lower, 19 nM
- CC(=O)Nc1ccc(NC(=O)Cc2ccc(-n3c(-c4cccnc4N)nc4cc(-c5cccnc5)cnc43)cc2)cc1 [Example 319, N-(4-acetamidophenyl)-2-(4-(2-(2-aminopyridin-3-yl)-6-(pyridin-3-yl)-3H-imidazo[4,5-b]pyridin-3-yl)phenyl)acetamide] — 7.7-fold lower, 22 nM
- Nc1ncccc1-c1nc2cc(-c3cccnc3)cnc2n1-c1ccc(CC(=O)Nc2cccc(F)c2)cc1 [Example 320, 2-(4-(2-(2-aminopyridin-3-yl)-6-(pyridin-3-yl)-3H-imidazo[4,5-b]pyridin-3-yl)phenyl)-N-(3-fluorophenyl)acetamide] — 3-fold lower, 57 nM
- Cc1cc2nc(-c3cccnc3N)n(-c3ccc(CNC(=O)c4cccc(F)c4)cc3)c2nc1C [Example 321, N-(4-(2-(2-aminopyridin-3-yl)-5,6-dimethyl-3H-imidazo[4,5-b]pyridin-3-yl)benzyl)-3-fluorobenzamide] — 2.2-fold lower, 76 nM
- Cc1cc2nc(-c3cccnc3N)n(-c3ccc(CNC(=O)c4ccccc4)cc3)c2nc1C [Example 322, N-(4-(2-(2-aminopyridin-3-yl)-5,6-dimethyl-3H-imidazo[4,5-b]pyridin-3-yl)benzyl)benzamide] — 2.2-fold lower, 77 nM
- CC(=O)Nc1cccc(NC(=O)Cc2ccc(-n3c(-c4cccnc4N)nc4ccc(C)nc43)cc2)c1 [Example 323, N-(3-acetamidophenyl)-2-(4-(2-(2-aminopyridin-3-yl)-5-methyl-3H-imidazo[4,5-b]pyridin-3-yl)phenyl)acetamide] — within 1.5-fold, 150 nM
- CC(=O)Nc1cccc(-c2ccc3nc(-c4cccnc4N)n(-c4ccc(CNS(=O)(=O)c5cn(C)cn5)cc4)c3n2)c1 [Example 325, N-(3-(2-(2-aminopyridin-3-yl)-3-(4-((1-methyl-1H-imidazole-4-sulfonamido)methyl)phenyl)-3H-imidazo[4,5-b]pyridin-5-yl)phenyl)acetamide] — 5.2-fold lower, 33 nM

Reference: patent publication US8501770B2 (ArQule, Inc., priority 2009, dated 2013)
